Laboratory results taken from patent US9682995B2, “Amino-substituted isothiazoles” (BAYER PHARMA AKTIENGESELLSCHAFT, priority 2013, dated 2017).

Tests used:
Assay in all cases: Kinase Profiling (KINOMEscan)
Type in all cases: binding
[1] = molecular target: 456 kinases (of these 395 non-mutant kinases) (Homo sapiens, UniProt P11309); settings: PIM1; 10 μM
[2] = molecular target: 456 kinases (of these 395 non-mutant kinases) (Homo sapiens, UniProt P53350); settings: PLK1; 10 μM
[3] = molecular target: 456 kinases (of these 395 non-mutant kinases) (Homo sapiens, UniProt Q6DT37); settings: DMPK2; 10 μM
[4] = molecular target: 456 kinases (of these 395 non-mutant kinases) (Homo sapiens, UniProt P36888, N841I); settings: FLT3(N841I); 10 μM
[5] = molecular target: 456 kinases (of these 395 non-mutant kinases) (Homo sapiens, UniProt P00533, L858R/T790M); settings: EGFR(L858R,T790M); 10 μM
[6] = molecular target: 456 kinases (of these 395 non-mutant kinases) (Homo sapiens, UniProt P22455); settings: FGFR4; 10 μM
Chain of 456 kinases (of these 395 non-mutant kinases) (Homo sapiens, UniProt P22455) (P22455 22-802 limits assumed, change not shown): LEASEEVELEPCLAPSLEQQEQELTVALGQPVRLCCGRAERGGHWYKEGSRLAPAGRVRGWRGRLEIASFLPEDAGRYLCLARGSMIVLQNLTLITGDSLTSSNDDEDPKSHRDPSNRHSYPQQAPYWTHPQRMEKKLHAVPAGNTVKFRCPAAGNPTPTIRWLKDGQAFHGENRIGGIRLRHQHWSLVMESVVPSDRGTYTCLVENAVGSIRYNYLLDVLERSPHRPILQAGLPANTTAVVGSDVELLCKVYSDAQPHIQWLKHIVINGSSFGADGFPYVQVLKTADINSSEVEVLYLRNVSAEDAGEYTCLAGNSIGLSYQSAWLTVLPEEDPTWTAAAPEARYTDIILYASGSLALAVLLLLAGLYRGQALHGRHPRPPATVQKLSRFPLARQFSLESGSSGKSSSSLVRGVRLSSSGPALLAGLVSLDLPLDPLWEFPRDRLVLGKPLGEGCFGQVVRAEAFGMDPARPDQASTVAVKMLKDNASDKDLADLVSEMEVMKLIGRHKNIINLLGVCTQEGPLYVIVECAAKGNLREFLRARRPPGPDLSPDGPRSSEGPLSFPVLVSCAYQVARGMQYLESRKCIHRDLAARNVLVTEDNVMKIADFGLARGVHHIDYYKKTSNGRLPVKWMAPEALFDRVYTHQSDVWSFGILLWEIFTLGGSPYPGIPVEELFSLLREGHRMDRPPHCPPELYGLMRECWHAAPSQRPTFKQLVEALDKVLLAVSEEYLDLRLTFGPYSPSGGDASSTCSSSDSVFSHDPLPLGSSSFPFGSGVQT

[7] = molecular target: 456 kinases (of these 395 non-mutant kinases) (Homo sapiens, UniProt Q9P289); settings: MST4; 10 μM
Chain of 456 kinases (of these 395 non-mutant kinases) (Homo sapiens, UniProt Q9P289) (Q9P289 2-416 limits assumed, change not shown): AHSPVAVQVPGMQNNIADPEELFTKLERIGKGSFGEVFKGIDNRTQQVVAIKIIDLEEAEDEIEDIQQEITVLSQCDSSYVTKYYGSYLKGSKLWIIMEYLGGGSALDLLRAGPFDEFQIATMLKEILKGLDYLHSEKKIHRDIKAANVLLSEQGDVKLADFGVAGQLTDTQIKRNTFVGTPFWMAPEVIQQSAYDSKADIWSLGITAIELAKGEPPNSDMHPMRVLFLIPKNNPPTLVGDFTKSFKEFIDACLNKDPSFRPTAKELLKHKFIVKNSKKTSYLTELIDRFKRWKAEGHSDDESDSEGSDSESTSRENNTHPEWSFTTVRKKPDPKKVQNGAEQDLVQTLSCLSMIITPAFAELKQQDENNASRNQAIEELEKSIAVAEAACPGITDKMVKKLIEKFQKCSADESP

[8] = molecular target: 456 kinases (of these 395 non-mutant kinases) (Homo sapiens, UniProt P37023); settings: ACVRL1; 10 μM
[9] = molecular target: 456 kinases (of these 395 non-mutant kinases) (Homo sapiens, UniProt Q08345); settings: DDR1; 10 μM
[10] = molecular target: 456 kinases (of these 395 non-mutant kinases) (Homo sapiens, UniProt Q96SB4); settings: SRPK1; 10 μM
[11] = molecular target: 456 kinases (of these 395 non-mutant kinases) (Homo sapiens, UniProt Q92918); settings: HPK1; 10 μM
[12] = molecular target: 456 kinases (of these 395 non-mutant kinases) (Homo sapiens, UniProt P36897); settings: TGFBR1; 10 μM
Chain of 456 kinases (of these 395 non-mutant kinases) (Homo sapiens, UniProt P36897) (P36897 34-503 limits assumed, change not shown): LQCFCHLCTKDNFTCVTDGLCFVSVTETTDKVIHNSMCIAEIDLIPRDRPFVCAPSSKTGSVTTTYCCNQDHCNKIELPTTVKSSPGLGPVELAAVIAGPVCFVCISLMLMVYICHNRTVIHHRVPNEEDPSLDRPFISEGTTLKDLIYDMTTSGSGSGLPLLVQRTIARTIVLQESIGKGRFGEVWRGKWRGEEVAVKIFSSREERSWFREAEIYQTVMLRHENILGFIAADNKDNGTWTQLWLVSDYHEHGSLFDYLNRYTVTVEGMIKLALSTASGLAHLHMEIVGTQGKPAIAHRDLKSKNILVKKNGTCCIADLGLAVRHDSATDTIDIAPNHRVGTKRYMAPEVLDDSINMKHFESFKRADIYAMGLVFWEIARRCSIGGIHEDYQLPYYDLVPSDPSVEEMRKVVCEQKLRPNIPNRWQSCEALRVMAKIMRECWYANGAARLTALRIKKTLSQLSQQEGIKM

[13] = molecular target: 456 kinases (of these 395 non-mutant kinases) (Homo sapiens, UniProt Q6ZWH5); settings: NEK10; 10 μM
[14] = molecular target: 456 kinases (of these 395 non-mutant kinases) (Homo sapiens, UniProt Q9UBF8); settings: PIK4CB; 10 μM
Chain of 456 kinases (of these 395 non-mutant kinases) (Homo sapiens, UniProt Q9UBF8) (Q9UBF8 2-816 limits assumed, change not shown): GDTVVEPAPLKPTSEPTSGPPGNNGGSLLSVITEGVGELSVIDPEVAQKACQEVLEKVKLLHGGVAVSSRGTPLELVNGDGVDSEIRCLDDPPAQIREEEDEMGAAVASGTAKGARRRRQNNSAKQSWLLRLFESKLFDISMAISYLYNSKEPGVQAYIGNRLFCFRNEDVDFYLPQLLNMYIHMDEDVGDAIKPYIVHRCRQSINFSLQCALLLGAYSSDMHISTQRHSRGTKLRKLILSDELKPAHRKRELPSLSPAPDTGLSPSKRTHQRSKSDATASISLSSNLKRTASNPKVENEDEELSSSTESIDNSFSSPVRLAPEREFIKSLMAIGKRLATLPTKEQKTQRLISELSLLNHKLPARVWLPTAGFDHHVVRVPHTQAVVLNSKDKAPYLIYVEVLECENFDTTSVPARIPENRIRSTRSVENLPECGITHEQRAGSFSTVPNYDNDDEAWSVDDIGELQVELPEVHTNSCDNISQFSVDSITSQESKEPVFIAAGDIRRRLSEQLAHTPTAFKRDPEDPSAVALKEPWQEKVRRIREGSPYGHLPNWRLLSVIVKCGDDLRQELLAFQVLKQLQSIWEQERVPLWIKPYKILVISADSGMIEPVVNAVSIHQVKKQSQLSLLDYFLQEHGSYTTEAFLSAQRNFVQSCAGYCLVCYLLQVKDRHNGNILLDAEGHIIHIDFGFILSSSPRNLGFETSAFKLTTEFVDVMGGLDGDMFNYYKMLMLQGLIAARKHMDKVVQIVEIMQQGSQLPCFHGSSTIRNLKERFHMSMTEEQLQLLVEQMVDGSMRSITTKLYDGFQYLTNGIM

[15] = molecular target: 456 kinases (of these 395 non-mutant kinases) (Homo sapiens, UniProt Q12852); settings: DLK; 10 μM
[16] = molecular target: 456 kinases (of these 395 non-mutant kinases) (Homo sapiens, UniProt O14730); settings: RIOK3; 10 μM
[17] = molecular target: 456 kinases (of these 395 non-mutant kinases) (Homo sapiens, UniProt P42336, E542K); settings: PIK3CA(E542K); 10 μM
[18] = molecular target: 456 kinases (of these 395 non-mutant kinases) (Homo sapiens, UniProt P08581); settings: MET; 10 μM
Chain of 456 kinases (of these 395 non-mutant kinases) (Homo sapiens, UniProt P08581) (P08581 25-1390 limits assumed, change not shown): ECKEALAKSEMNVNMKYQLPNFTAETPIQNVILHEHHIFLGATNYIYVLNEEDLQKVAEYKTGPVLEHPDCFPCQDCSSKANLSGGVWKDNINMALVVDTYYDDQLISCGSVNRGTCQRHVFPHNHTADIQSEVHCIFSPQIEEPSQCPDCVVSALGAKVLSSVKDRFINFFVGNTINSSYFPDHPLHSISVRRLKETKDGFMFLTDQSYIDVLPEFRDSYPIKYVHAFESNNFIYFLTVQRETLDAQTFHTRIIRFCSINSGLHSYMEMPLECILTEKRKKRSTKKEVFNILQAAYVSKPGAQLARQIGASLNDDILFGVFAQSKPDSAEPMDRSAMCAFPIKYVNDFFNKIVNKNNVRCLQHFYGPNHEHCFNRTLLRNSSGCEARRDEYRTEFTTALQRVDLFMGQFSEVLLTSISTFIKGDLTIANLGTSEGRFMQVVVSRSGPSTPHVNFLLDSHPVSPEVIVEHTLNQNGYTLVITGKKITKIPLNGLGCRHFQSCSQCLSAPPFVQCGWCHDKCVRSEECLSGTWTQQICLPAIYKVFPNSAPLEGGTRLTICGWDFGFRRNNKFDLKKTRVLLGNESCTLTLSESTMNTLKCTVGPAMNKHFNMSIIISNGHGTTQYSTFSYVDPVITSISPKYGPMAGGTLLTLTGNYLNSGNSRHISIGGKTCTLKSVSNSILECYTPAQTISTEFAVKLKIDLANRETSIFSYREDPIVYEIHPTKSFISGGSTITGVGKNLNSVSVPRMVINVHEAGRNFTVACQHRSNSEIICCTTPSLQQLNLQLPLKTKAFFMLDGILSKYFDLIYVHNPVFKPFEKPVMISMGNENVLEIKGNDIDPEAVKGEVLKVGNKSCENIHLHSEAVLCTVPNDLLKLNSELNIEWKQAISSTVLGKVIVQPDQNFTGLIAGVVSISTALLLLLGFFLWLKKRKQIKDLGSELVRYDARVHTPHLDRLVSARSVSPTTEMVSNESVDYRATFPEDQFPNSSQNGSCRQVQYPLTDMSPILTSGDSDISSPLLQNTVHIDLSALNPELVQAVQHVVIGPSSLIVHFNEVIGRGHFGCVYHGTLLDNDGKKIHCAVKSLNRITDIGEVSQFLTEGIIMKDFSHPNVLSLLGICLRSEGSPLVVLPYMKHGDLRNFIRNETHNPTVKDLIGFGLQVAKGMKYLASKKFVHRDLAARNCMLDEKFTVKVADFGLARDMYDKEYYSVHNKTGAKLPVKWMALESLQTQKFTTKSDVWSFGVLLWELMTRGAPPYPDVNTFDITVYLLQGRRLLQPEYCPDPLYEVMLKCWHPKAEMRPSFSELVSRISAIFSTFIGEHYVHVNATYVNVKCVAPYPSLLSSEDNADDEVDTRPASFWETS

[19] = molecular target: 456 kinases (of these 395 non-mutant kinases) (Homo sapiens, UniProt O14965); settings: AURKA; 10 μM
[20] = molecular target: 456 kinases (of these 395 non-mutant kinases) (Homo sapiens, UniProt Q13464); settings: ROCK1; 10 μM
[21] = molecular target: 456 kinases (of these 395 non-mutant kinases) (Homo sapiens, UniProt P42681); settings: TXK; 10 μM
[22] = molecular target: 456 kinases (of these 395 non-mutant kinases) (Homo sapiens, UniProt P06241); settings: FYN; 10 μM
Chain of 456 kinases (of these 395 non-mutant kinases) (Homo sapiens, UniProt P06241) (P06241 2-537 limits assumed, change not shown): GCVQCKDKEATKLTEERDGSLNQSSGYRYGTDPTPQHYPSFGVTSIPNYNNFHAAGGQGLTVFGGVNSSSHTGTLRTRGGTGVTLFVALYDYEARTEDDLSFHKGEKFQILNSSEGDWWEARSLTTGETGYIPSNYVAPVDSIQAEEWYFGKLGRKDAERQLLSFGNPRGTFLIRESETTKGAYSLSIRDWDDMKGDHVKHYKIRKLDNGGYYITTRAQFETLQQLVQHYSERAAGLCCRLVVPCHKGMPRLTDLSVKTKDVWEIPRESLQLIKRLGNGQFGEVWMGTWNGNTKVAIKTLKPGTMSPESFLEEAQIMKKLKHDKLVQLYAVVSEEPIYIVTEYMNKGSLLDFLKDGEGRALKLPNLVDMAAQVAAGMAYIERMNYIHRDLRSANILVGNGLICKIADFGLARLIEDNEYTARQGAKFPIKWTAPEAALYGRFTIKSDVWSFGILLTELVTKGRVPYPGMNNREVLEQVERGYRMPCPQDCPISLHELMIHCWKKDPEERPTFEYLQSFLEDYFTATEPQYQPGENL

[23] = molecular target: 456 kinases (of these 395 non-mutant kinases) (Homo sapiens, UniProt P42336); settings: PIK3CA; 10 μM
[24] = molecular target: 456 kinases (of these 395 non-mutant kinases) (Homo sapiens, UniProt P35968); settings: VEGFR2; 10 μM
[25] = molecular target: 456 kinases (of these 395 non-mutant kinases) (Homo sapiens, UniProt Q8N5S9); settings: CAMKK1; 10 μM
[26] = molecular target: 456 kinases (of these 395 non-mutant kinases) (Homo sapiens, UniProt Q9H422); settings: HIPK3; 10 μM
[27] = molecular target: 456 kinases (of these 395 non-mutant kinases) (Homo sapiens, UniProt Q8NEV4); settings: MYO3A; 10 μM
[28] = molecular target: 456 kinases (of these 395 non-mutant kinases) (Homo sapiens, UniProt Q9UQ88); settings: CDC2L2; 10 μM
[29] = molecular target: 456 kinases (of these 395 non-mutant kinases) (Homo sapiens, UniProt P36888); settings: 10 μM
[30] = molecular target: 456 kinases (of these 395 non-mutant kinases) (Homo sapiens, UniProt Q9BWU1); settings: CDK11; 10 μM
[31] = molecular target: 456 kinases (of these 395 non-mutant kinases) (Homo sapiens, UniProt Q96GD4); settings: AURKB; 10 μM
[32] = molecular target: 456 kinases (of these 395 non-mutant kinases) (Homo sapiens, UniProt O15075); settings: DCAMKL1; 10 μM

Chain of 456 kinases (of these 395 non-mutant kinases) (Homo sapiens, UniProt P53350) (P53350 2-603 limits assumed, change not shown): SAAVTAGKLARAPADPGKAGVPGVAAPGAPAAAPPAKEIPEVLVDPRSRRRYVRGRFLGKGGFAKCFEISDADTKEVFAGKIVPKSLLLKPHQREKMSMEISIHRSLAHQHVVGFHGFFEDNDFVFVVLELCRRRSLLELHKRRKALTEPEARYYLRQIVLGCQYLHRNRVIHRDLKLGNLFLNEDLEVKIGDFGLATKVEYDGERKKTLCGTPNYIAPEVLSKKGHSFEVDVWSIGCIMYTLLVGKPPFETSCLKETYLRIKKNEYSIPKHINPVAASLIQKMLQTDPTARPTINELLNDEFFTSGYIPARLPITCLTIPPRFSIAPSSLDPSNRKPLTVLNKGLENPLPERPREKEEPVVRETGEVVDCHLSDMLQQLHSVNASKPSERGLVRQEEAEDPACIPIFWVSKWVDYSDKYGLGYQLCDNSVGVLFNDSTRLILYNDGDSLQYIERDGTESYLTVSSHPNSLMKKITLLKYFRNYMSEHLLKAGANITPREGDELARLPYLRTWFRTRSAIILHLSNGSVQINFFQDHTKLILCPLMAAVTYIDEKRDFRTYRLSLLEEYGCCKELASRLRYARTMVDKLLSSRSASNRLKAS

CCc1ccccc1NC(=O)c1c(C)nsc1Nc1cnc2cc(F)ccc2n1 [Example 20, N-(2-Ethylphenyl)-5-[(6-fluoroquinoxalin-2-yl)amino]-3-methyl-1,2-thiazole-4-carboxamide]
% Ctrl @ 10 μM [1]: 100 % Ctrl
% Ctrl @ 10 μM [2]: 87 % Ctrl
% Ctrl @ 10 μM [3]: 79 % Ctrl
% Ctrl @ 10 μM [4]: 84 % Ctrl
% Ctrl @ 10 μM [5]: 96 % Ctrl
% Ctrl @ 10 μM [6]: 77 % Ctrl
% Ctrl @ 10 μM [7]: 100 % Ctrl
% Ctrl @ 10 μM [8]: 100 % Ctrl
% Ctrl @ 10 μM [9]: 77 % Ctrl
% Ctrl @ 10 μM [10]: 86 % Ctrl
% Ctrl @ 10 μM [11]: 60 % Ctrl
% Ctrl @ 10 μM [12]: 100 % Ctrl
% Ctrl @ 10 μM [13]: 84 % Ctrl
% Ctrl @ 10 μM [14]: 78 % Ctrl
% Ctrl @ 10 μM [15]: 94 % Ctrl
% Ctrl @ 10 μM [16]: 91 % Ctrl
% Ctrl @ 10 μM [17]: 81 % Ctrl
% Ctrl @ 10 μM [18]: 100 % Ctrl
% Ctrl @ 10 μM [19]: 100 % Ctrl
% Ctrl @ 10 μM [20]: 81 % Ctrl
% Ctrl @ 10 μM [21]: 71 % Ctrl
% Ctrl @ 10 μM [22]: 57 % Ctrl
% Ctrl @ 10 μM [23]: 100 % Ctrl
% Ctrl @ 10 μM [24]: 100 % Ctrl
% Ctrl @ 10 μM [25]: 80 % Ctrl
% Ctrl @ 10 μM [26]: 96 % Ctrl
% Ctrl @ 10 μM [27]: 86 % Ctrl
% Ctrl @ 10 μM [28]: 85 % Ctrl
% Ctrl @ 10 μM ([29]; FLT3-autoinhibited): 100 % Ctrl
% Ctrl @ 10 μM ([29]; FLT3): 80 % Ctrl
% Ctrl @ 10 μM [30]: 100 % Ctrl
% Ctrl @ 10 μM [31]: 100 % Ctrl
% Ctrl @ 10 μM [32]: 92 % Ctrl
